Experimental data: US20090018134A1, “Compounds - 945” (AstraZeneca AB, priority 2007, published 2009)

target: T1, mTOR (Homo sapiens, UniProt P42345); test: In Vitro mTOR Kinase Assay (Echo), Test (a)(ii); format: biochemical; conditions: table of enzyme assay Test (a)(ii); read-out: Test (a)(ii) IC50
T1 construct: FLAG; made in house
Summary of the method: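 Inhibition of truncated mTOR (1362-2549, FLAG-tagged, purified from stably transfected HEK293 cells) is measured as reduced AlphaScreen signal from a phospho-T389-recognising antibody bound to the biotinylated peptide product. Kinase incubation lasts 2 hours at room temperature. Potency is given as IC50.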

T1 sequence (P42345 1362-2549): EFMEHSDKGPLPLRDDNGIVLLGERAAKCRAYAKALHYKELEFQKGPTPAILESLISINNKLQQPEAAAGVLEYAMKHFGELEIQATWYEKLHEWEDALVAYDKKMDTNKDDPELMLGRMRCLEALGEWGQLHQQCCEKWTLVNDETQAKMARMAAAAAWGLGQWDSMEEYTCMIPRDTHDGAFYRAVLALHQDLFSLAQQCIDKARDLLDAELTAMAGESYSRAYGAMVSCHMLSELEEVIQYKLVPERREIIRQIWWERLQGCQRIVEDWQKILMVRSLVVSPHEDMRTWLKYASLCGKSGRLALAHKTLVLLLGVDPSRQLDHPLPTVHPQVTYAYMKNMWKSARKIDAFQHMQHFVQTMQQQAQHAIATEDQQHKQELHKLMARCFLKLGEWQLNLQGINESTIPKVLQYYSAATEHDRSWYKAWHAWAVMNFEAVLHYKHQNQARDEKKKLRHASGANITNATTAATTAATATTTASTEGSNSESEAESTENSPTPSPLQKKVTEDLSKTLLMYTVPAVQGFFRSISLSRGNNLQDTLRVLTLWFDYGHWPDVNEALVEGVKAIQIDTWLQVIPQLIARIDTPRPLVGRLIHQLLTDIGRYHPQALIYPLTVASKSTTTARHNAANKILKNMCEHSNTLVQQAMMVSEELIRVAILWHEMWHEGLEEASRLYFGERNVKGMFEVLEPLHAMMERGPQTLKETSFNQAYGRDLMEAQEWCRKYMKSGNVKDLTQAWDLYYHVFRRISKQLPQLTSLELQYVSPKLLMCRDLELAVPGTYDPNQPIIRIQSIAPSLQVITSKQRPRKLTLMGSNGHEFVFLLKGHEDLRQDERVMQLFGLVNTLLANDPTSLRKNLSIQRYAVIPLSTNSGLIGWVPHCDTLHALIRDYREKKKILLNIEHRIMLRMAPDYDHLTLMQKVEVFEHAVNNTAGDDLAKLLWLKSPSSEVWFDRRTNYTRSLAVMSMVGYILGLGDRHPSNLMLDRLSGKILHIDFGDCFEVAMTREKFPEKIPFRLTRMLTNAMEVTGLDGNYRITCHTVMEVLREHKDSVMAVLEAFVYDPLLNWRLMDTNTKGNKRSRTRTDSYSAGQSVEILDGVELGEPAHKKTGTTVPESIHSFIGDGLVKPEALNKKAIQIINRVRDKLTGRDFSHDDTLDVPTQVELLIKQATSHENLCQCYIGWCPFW

| IC50 | SMILES |
| --- | --- |
| 10.9 nM | CCNC(=O)Nc1ccc(-c2nc(N3CCOC[C@@H]3C)cc(C3(S(=O)(=O)c4ccc(F)c(Cl)c4)CC3)n2)cc1 [Example 95f, 3-[4-[4-[1-(3-chloro-4-fluorophenyl)sulfonyl-cyclopropyl]-6-[(3S)-3-methylmorpholin-4-yl]pyrimidin-2-yl]phenyl]-1-ethylurea] |
| 16.4 nM | C[C@H]1COCCN1c1cc(C2(S(=O)(=O)c3ccc(F)c(Cl)c3)CC2)nc(-c2ccc(NC(=O)Nc3cnn(C)c3)cc2)n1 [Example 95g, 1-[4-[4-[1-(3-chloro-4-fluorophenyl)sulfonyl-cyclopropyl]-6-[(3S)-3-methylmorpholin-4-yl]pyrimidin-2-yl]phenyl]-3-(1-methylpyrazol-4-yl)urea] |
| 13 nM | CNC(=O)Nc1ccc(-c2nc(N3CCOC[C@@H]3C)cc(C3(S(=O)(=O)c4ccc(NC)c(Cl)c4)CC3)n2)cc1 [Example 95h, 1-[4-[4-[1-(3-chloro-4-methylamino-phenyl)sulfonylcyclo-propyl]-6-[(3S)-3-methylmorpho-lin-4-yl]pyrimidin-2-yl]phenyl]-3-methylurea] |
| 4.79 nM | C[C@H]1COCCN1c1cc(C2(S(=O)(=O)c3ccc(NCCO)c(Cl)c3)CC2)nc(-c2ccc(NC(=O)NCCO)cc2)n1 [Example 95i, 1-[4-[4-[1-[3-chloro-4-(2-hydroxyethylamino)phenyl]sulfonylcyclopropyl]-6-[(3S)-3-methylmorpho-lin-4-yl]pyrimidin-2-yl]phenyl]-3-(2-hydroxyethyl)urea] |
| 13.1 nM | C[C@H]1COCCN1c1cc(C2(S(=O)(=O)c3ccc(NCCF)c(Cl)c3)CC2)nc(-c2ccc(NC(=O)NCCF)cc2)n1 [Example 95j, 1-[4-[4-[1-[3-chloro-4-(2-fluoroethyl-amino)phenyl]sulfonyl-cyclopropyl]-6-[(3S)-3-methylmorpho-lin-4-yl]pyrimidin-2-yl]phenyl]-3-(2-fluoroethyl)urea] |
| 27.2 nM | CCNC(=O)Nc1ccc(-c2nc(N3CCOC[C@@H]3C)cc(C3(S(=O)(=O)c4ccc(NCC)c(Cl)c4)CC3)n2)cc1 [Example 95k, 1-[4-[4-[1-(3-chloro-4-ethylamino-phenyl)sulfonylcyclopro-pyl]-6-[(3S)-3-methylmorpho-lin-4-yl]pyrimidin-2-yl]phenyl]-3-ethylurea] |
| 1.09 nM | CNC(=O)Nc1ccc(-c2nc(N3CCOC[C@@H]3C)cc(C3(S(=O)(=O)c4ccc(C)cc4)CC3)n2)cc1 [Example 95l, 3-methyl-1-[4-[4-[(3S)-3-methylmorpholin-4-yl]-6-[1-(4-methylphenyl)sulfonylcyclopropyl]pyrimidin-2-yl]phenyl]urea] |
| 2.02 nM | Cc1ccc(S(=O)(=O)C2(c3cc(N4CCOC[C@@H]4C)nc(-c4ccc(NC(=O)NC5CC5)cc4)n3)CC2)cc1 [Example 95m, 3-cyclopropyl-1-[4-[4-[(3S)-3-methylmorpholin-4-yl]-6-[1-(4-methylphenyl)sulfonylcyclopropyl]pyrimidin-2-yl]phenyl]urea] |
| 0.668 nM | Cc1ccc(S(=O)(=O)C2(c3cc(N4CCOC[C@@H]4C)nc(-c4ccc(NC(=O)NCCO)cc4)n3)CC2)cc1 [Example 95n, 3-(2-hydroxyethyl)-1-[4-[4-[(3S)-3-methylmorpholin-4-yl]-6-[1-(4-methylphenyl)sulfonylcyclopropyl]pyrimidin-2-yl]phenyl]urea] |
| 4.73 nM | Cc1ccc(S(=O)(=O)C2(c3cc(N4CCOC[C@@H]4C)nc(-c4ccc(NC(=O)NCCF)cc4)n3)CC2)cc1 [Example 95o, 3-(2-fluoro-ethyl)-1-[4-[4-[(3S)-3-methylmorpholin-4-yl]-6-[1-(4-methylphenyl)sulfonylcyclopropyl]pyrimidin-2-yl]phenyl]urea] |
| 5.43 nM | Cc1ccc(S(=O)(=O)C2(c3cc(N4CCOC[C@@H]4C)nc(-c4ccc(NC(=O)NCC(F)F)cc4)n3)CC2)cc1 [Example 95p, 3-(2,2-difluoroethyl)-1-[4-[4-[(3S)-3-methylmorpholin-4-yl]-6-[1-(4-methylphenyl)sulfonylcyclopropyl]pyrimidin-2-yl]phenyl]urea] |
| 1.68 nM | CCNC(=O)Nc1ccc(-c2nc(N3CCOC[C@@H]3C)cc(C3(S(=O)(=O)c4ccc(C)cc4)CC3)n2)cc1 [Example 95q, 1-ethyl-3-[4-[4-[(3S)-3-methylmorpholin-4-yl]-6-[1-(4-methylphenyl)sulfonylcyclopropyl]pyrimidin-2-yl]phenyl]urea] |
| 6.31 nM | Cc1ccc(S(=O)(=O)C2(c3cc(N4CCOC[C@@H]4C)nc(-c4ccc(NC(=O)Nc5cnn(C)c5)cc4)n3)CC2)cc1 [Example 95r, 1-[4-[4-[(3S)-3-methylmorpholin-4-yl]-6-[1-(4-methylphenyl)sulfonylcyclopropyl]pyrimidin-2-yl]phenyl]-3-(1-methylpyrazol-4-yl)urea] |
| 17.7 nM | C[C@H]1COCCN1c1cc(C2(S(=O)(=O)CCCOC(F)F)CC2)nc(-c2ccc(NC(=O)NCCF)cc2)n1 [Example 96a, 1-[4-[4-[1-[3-(difluoromethoxy)propylsulfonyl]cyclopropyl]-6-[(3S)-3-methylmorpholin-4-yl]pyrimidin-2-yl]phenyl]-3-(2-fluoroethyl)urea] |
| 26.8 nM | C[C@H]1COCCN1c1cc(C2(S(=O)(=O)CCCOC(F)F)CC2)nc(-c2ccc(NC(=O)NCC(F)F)cc2)n1 [Example 96b, 3-(2,2-difluoroethyl)-1-[4-[4-[1-[3-(difluoromethoxy)propylsulfonyl]cycloproyl]-6-[(3S)-3-methylmorpholin-4-yl]pyrimidin-2-yl]phenyl]urea] |
| 27.2 nM | CCNC(=O)Nc1ccc(-c2nc(N3CCOC[C@@H]3C)cc(C3(S(=O)(=O)CCCOC(F)F)CC3)n2)cc1 [Example 96c, 1-[4-[4-[1-[3-(difluoromethoxy)propylsulfonyl]cyclopropyl]-6-[(3S)-3-methylmorpholin-4-yl]pyrimidin-2-yl]phenyl]-3-ethylurea] |
| 20.9 nM | C[C@H]1COCCN1c1cc(C2(S(=O)(=O)CCCOC(F)F)CC2)nc(-c2ccc(NC(=O)Nc3cnn(C)c3)cc2)n1 [Example 96d, 1-[4-[4-[1-[3-(difluoromethoxy)propylsulfonyl]cyclopropyl]-6-[(3S)-3-methylmorpholin-4-yl]pyrimidin-2-yl]phenyl]-3-(1-methylpyrazol-4-yl)urea] |
| 8.62 nM | C[C@H]1COCCN1c1cc(C2(S(=O)(=O)CCCOC(F)F)CC2)nc(-c2ccc(NC(=O)NC3CC3)cc2)n1 [Example 96e, 3-cyclopropyl-1-[4-[4-[1-[3-(difluoromethoxy)propylsulfonyl]cyclopropyl]-6-[(3S)-3-methylmorpholin-4-yl]pyrimidin-2-yl]phenyl]urea] |
| 88.2 nM | CNCCS(=O)(=O)C1(c2cc(N3CCOCC3)nc(-c3ccc(NC(=O)NC)cc3)n2)CC1 [Example 97, 3-Methyl-1-[4-[4-[1-(2-methylaminoethylsulfonyl)cyclopropyl]-6-morpholin-4-ylpyrimidin-2-yl]phenyl]urea] |
| 11 nM | Cc1csc(S(=O)(=O)C2(c3cc(N4CCOC[C@@H]4C)nc(-c4ccc(NC(=O)NC(C)(C)CO)cc4)n3)CCC2)n1 [Example 98a, 3-(1-hydroxy-2-methylpropan-2-yl)-1-[4-[4-[(3S)-3-methylmorpholin-4-yl]-6-[1-[(4-methyl-1,3-thiazol-2-yl)sulfonyl]cyclobutyl]pyrimidin-2-yl]phenyl]urea] |
| 4.13 nM | Cc1csc(S(=O)(=O)C2(c3cc(N4CCOC[C@@H]4C)nc(-c4ccc(NC(=O)N[C@@H](C)CO)cc4)n3)CCC2)n1 [Example 98b, 3-[(2S)-1-hydroxypropan-2-yl]-1-[4-[4-[(3S)-3-methylmorpholin-4-yl]-6-[1-[(4-methyl-1,3-thiazol-2-yl)sulfonyl]cyclobutyl]pyrimidin-2-yl]phenyl]urea] |
| 26.7 nM | Cc1csc(S(=O)(=O)C2(c3cc(N4CCOC[C@@H]4C)nc(-c4ccc(NC(=O)NCc5ncc[nH]5)cc4)n3)CCC2)n1 [Example 98c, 3-(1H-imidazol-2-ylmethyl)-1-[4-[4-[(3S)-3-methylmorpholin-4-yl]-6-[1-[(4-methyl-1,3-thiazol-2-yl)sulfonyl]cyclobutyl]pyrimidin-2-yl]phenyl]urea] |
| 4.41 nM | Cc1csc(S(=O)(=O)C2(c3cc(N4CCOC[C@@H]4C)nc(-c4ccc(NC(=O)NCCCO)cc4)n3)CCC2)n1 [Example 98d, 3-(3-hydroxypropyl)-1-[4-[4-[(3S)-3-methylmorpholin-4-yl]-6-[1-[(4-methyl-1,3-thiazol-2-yl)sulfonyl]cyclobutyl]pyrimidin-2-yl]phenyl]urea] |
| 3.35 nM | Cc1csc(S(=O)(=O)C2(c3cc(N4CCOC[C@@H]4C)nc(-c4ccc(NC(=O)NCCO)cc4)n3)CCC2)n1 [Example 98e, 3-(2-hydroxyethyl)-1-[4-[4-[(3S)-3-methylmorpholin-4-yl]-6-[1-[(4-methyl-1,3-thiazol-2-yl)sulfonyl]cyclobutyl]pyrimidin-2-yl]phenyl]urea] |
| 2.29 nM | Cc1csc(S(=O)(=O)C2(c3cc(N4CCOC[C@@H]4C)nc(-c4ccc(NC(=O)N[C@H](C)CO)cc4)n3)CCC2)n1 [Example 98f, 3-[(2R)-1-hydroxypropan-2-yl]-1-[4-[4-[(3S)-3-methylmorpholin-4-yl]-6-[1-[(4-methyl-1,3-thiazol-2-yl)sulfonyl]cyclobutyl]pyrimidin-2-yl]phenyl]urea] |
| 12.7 nM | C[C@H]1COCCN1c1cc(C2(S(=O)(=O)c3nccs3)CCC2)nc(-c2ccc(NC(=O)NC(C)(C)CO)cc2)n1 [Example 98g, 3-(1-hydroxy-2-methylpropan-2-yl)-1-[4-[4-[(3S)-3-methylmorpholin-4-yl]-6-[1-(1,3-thiazol-2-ylsulfonyl)cyclobutyl]pyrimidin-2-yl]phenyl]urea] |
| 3.62 nM | C[C@@H](CO)NC(=O)Nc1ccc(-c2nc(N3CCOC[C@@H]3C)cc(C3(S(=O)(=O)c4nccs4)CCC3)n2)cc1 [Example 98h, 3-[(2S)-1-hydroxypropan-2-yl]-1-[4-[4-[(3S)-3-methylmorpholin-4-yl]-6-[1-(1,3-thiazol-2-ylsulfonyl)cyclobutyl]pyrimidin-2-yl]phenyl]urea] |
